Assay results reported in the supplement of paper PMC10331698.
± gives the standard deviation of the averaged measurements.

Columns and labels:
Assay in all cases: level (log10 ratio to DMSO vehicle control); higher = higher biomarker level / cell amount than vehicle control
Conditions in all cases: in DMSO
[1] = compound: O=S(=O)(O)C(F)(F)C(F)(F)C(F)(F)C(F)(F)C(F)(F)C(F)(F)F [Perfluorohexanesulfonic acid]
Experimental: (§1)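 BioMAP Diversity Plus panel of 12 human primary cell co-culture systems (3C, 4H, LPS, SAg, BT, BF4T, BE3C, CASM3C, HDF3CGF, KF3CT, MyoF, Mphg). Compounds were added 1 h before stimulation and left for 24 h (MyoF 48 h; BT 72 h for soluble read-outs or 6 d for IgG). Biomarkers were read by ELISA, cytotoxicity by SRB, PBMC viability and proliferation by Alamar Blue. Each well value was divided by the mean of 8 DMSO control wells on the same plate and log10 transformed; duplicate blinded samples were tested at 4 concentrations.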

[2] = compound: OCCC(F)(F)C(F)(F)C(F)(F)C(F)(F)C(F)(F)C(F)(F)F [6:2 Fluorotelomer alcohol]
Experimental: as §1

[3] = compound: O=C(O)C(F)(F)OC(F)(F)C(F)(F)OC(F)(F)F [Perfluoro-3,6-dioxaheptanoic acid]
Experimental: as §1

[4] = compound: C=CC(=O)OCC(F)(F)C(F)(F)C(F)(F)C(F)(F)C(F)(F)C(F)(F)C(F)(F)F [1H,1H-Perfluorooctyl acrylate]
Experimental: as §1

[5] = compound: O=C(O)C(F)(F)C(F)(F)C(F)(F)OC(F)(C(F)(F)F)C(F)(F)F [Perfluoro-4-isopropoxybutanoic acid]
Experimental: as §1

[6] = compound: NCC(F)(F)C(F)(F)C(F)(F)C(F)(F)C(F)(F)C(F)(F)C(F)(F)F [1H,1H-Perfluorooctylamine]
Experimental: as §1

[7] = compound: O=C(O)C(F)(F)C(F)(F)OC(F)(F)F [Perfluoro-3-methoxypropanoic acid]
Experimental: as §1

Row | Test System | level (log10) ([1]; 6700 nM) | level (log10) ([1]; 20000 nM) | level (log10) ([1]; 60000 nM) | level (log10) ([2]; 6700 nM) | level (log10) ([2]; 20000 nM) | level (log10) ([3]; 6700 nM) | level (log10) ([3]; 20000 nM) | level (log10) ([3]; 60000 nM) | level (log10) ([4]; 6700 nM) | level (log10) ([4]; 20000 nM) | level (log10) ([4]; 60000 nM) | level (log10) ([5]; 6700 nM) | level (log10) ([5]; 20000 nM) | level (log10) ([5]; 60000 nM) | level (log10) ([6]; 6700 nM) | level (log10) ([6]; 20000 nM) | level (log10) ([6]; 60000 nM) | level (log10) ([7]; 6700 nM) | level (log10) ([7]; 20000 nM) | level (log10) ([7]; 60000 nM)
1 | LPS:sTNF-alpha | -0.007 ± 0.025 | -0.0195 ± 0.015 | -0.0695 ± 0.0092 | -0.0335 ± 0.17 | -0.016 ± 0.16 | -0.012 ± 0.027 | -0.0265 ± 0.023 | -0.0205 ± 0.005 | 0.0115 ± 0.00071 | 0.0285 ± 0.011 | 0.021 ± 0.013 | -0.0215 ± 0.15 | -0.012 ± 0.13 | -0.031 ± 0.1 | 0.018 ± 0.011 | 0.0125 ± 0.029 | -0.0015 ± 0.028 | 0.036 ± 0.011 | 0.036 ± 0.045 | 0.06 ± 0.059
2 | BT:sIL-17A | 0.135 ± 0.11 | -0.0225 ± 0.25 | -0.133 | 0.0375 ± 0.015 | -0.0005 ± 0.11 | -0.0275 ± 0.093 | -0.102 ± 0.26 | -0.155 ± 0.16 | -0.242 ± 0.26 | -0.141 ± 0.05 | -0.409 ± 0.18 | 0.027 ± 0.05 | 0.052 ± 0.096 | -0.0105 ± 0.21 | 0.0455 ± 0.064 | -0.035 ± 0.038 | -0.184 ± 0.0071 | 0.035 ± 0.27 | -0.0495 ± 0.076 | 0.0575 ± 0.12
3 | 3C:SRB | -0.011 ± 0.0085 | -0.014 ± 0.0014 | -0.0425 ± 0.019 | -0.006 ± 0.023 | 0.004 ± 0.028 | -0.01 ± 0.0071 | -0.022 ± 0.0057 | -0.008 ± 0.0042 | -0.002 ± 0.0099 | 0.0145 ± 0.011 | 0.015 | 0.0005 ± 0.011 | -0.0075 ± 0.015 | -0.017 ± 0.024 | 0.0005 ± 0.0035 | 0.002 ± 0.0071 | 0.0045 ± 0.046 | 0.001 ± 0.0014 | 0.0005 ± 0.019 | -0.004 ± 0.017
4 | BF4T:MMP-1 | 0.0035 ± 0.0021 | -0.0025 ± 0.023 | 0.0255 ± 0.0035 | 0.0065 ± 0.005 | 0.014 ± 0.021 | -0.0125 ± 0.025 | -0.004 ± 0.028 | -0.001 ± 0.013 | 0.009 ± 0.021 | 0.0065 ± 0.0092 | 0.006 ± 0.0042 | -0.0035 ± 0.022 | 0.0155 ± 0.026 | 0.027 ± 0.03 | 0.0115 ± 0.0092 | 0.0025 ± 0.005 | 0.011 ± 0.0085 | 0.0025 ± 0.0021 | 0.008 ± 0.0042 | 0.0205 ± 0.023
5 | BF4T:MMP-3 | 0.021 ± 0.042 | 0.0195 ± 0.035 | 0.0605 ± 0.053 | -0.004 ± 0.0042 | -0.0055 ± 0.0035 | -0.0065 ± 0.029 | -0.0075 ± 0.025 | 0.0065 ± 0.0078 | -0.004 ± 0.0014 | 0.0205 ± 0.019 | 0.036 ± 0.0071 | -0.0095 ± 0.013 | -0.0015 ± 0.029 | 0.042 ± 0.1 | -0.0075 ± 0.042 | -0.0185 ± 0.044 | 0.0095 ± 0.0078 | -0.001 ± 0.024 | 0.0105 ± 0.0035 | 0.043 ± 0.016
6 | 3C:CD87/uPAR | -0.005 ± 0.027 | 0.0045 ± 0.011 | -0.0285 ± 0.013 | -0.0205 ± 0.059 | -0.0095 ± 0.042 | -0.0205 ± 0.00071 | -0.0015 ± 0.019 | -0.015 ± 0.028 | -0.0055 ± 0.012 | -0.0075 ± 0.0064 | 0.004 | -0.001 ± 0.04 | -0.009 ± 0.041 | -0.023 ± 0.033 | -0.009 ± 0.023 | -0.017 ± 0.025 | -0.006 ± 0.0057 | -0.016 ± 0.05 | -0.021 ± 0.013 | 0.021 ± 0.021
7 | LPS:sPGE2 | 0.0115 ± 0.0064 | -0.007 ± 0.0099 | -0.106 ± 0.028 | -0.028 ± 0.05 | -0.0465 ± 0.039 | -0.0065 ± 0.047 | -0.0395 ± 0.018 | -0.006 ± 0.021 | -0.045 ± 0.017 | -0.0805 ± 0.0035 | -0.109 ± 0.027 | -0.0145 ± 0.043 | -0.0585 ± 0.022 | -0.0615 ± 0.023 | -0.076 ± 0.025 | -0.059 ± 0.031 | -0.036 ± 0.013 | -0.0295 ± 0.03 | 0.0045 ± 0.052 | -0.0185 ± 0.011
8 | 3C:CXCL8/IL-8 | -0.004 ± 0.014 | 0.031 | 0.069 ± 0.024 | -0.001 ± 0.0085 | -0.0105 ± 0.0092 | 0.0235 ± 0.012 | 0.002 ± 0.035 | 0.0825 ± 0.074 | 0.0075 ± 0.013 | -0.008 ± 0.0042 | 0.016 ± 0.03 | -0.0055 ± 0.015 | 0.007 ± 0.013 | 0.043 ± 0.034 | -0.02 ± 0.0085 | -0.0125 ± 0.00071 | 0.0085 ± 0.046 | -0.017 ± 0.051 | -0.0255 ± 0.021 | 0.005 ± 0.037
9 | BF4T:Keratin 8/18 | 0.007 ± 0.011 | 0.0075 ± 0.0064 | 0.026 ± 0.02 | 0.0035 ± 0.0035 | 0.005 ± 0.0042 | -0.025 ± 0.023 | -0.001 ± 0.014 | -0.0095 ± 0.018 | 0.02 ± 0.0014 | 0.0005 ± 0.035 | -0.0035 ± 0.053 | -0.002 ± 0.0014 | -0.0115 ± 0.0021 | 0.0025 ± 0.011 | -0.0065 ± 0.021 | -0.011 ± 0.014 | 0.0035 ± 0.00071 | -0.002 ± 0.031 | -0.003 ± 0.0085 | 0.016 ± 0.011
10 | BF4T:uPA | -0.002 ± 0.027 | -0.007 ± 0.02 | -0.0035 ± 0.037 | -0.0185 ± 0.012 | -0.006 ± 0.011 | -0.04 ± 0.027 | -0.011 ± 0.011 | 0.0005 ± 0.025 | -0.002 ± 0.0014 | 0.0035 ± 0.00071 | 0.001 ± 0.0042 | -0.0085 ± 0.00071 | -0.02 ± 0.0085 | 0.0085 ± 0.03 | -0.0085 ± 0.012 | -0.016 ± 0.016 | -0.0155 ± 0.00071 | -0.009 ± 0.021 | -0.0015 ± 0.012 | 0.0155 ± 0.042
11 | SAg:Proliferation | -0.0215 ± 0.016 | 0.0015 ± 0.0064 | 0.021 ± 0.024 | -0.015 ± 0.027 | -0.024 ± 0.013 | -0.023 ± 0.061 | -0.005 ± 0.025 | 0.0115 ± 0.04 | 0.004 ± 0.0042 | -0.045 ± 0.047 | -0.128 ± 0.038 | -0.018 ± 0.0042 | -0.007 ± 0.0028 | 0.0175 ± 0.04 | -0.004 ± 0.024 | -0.0195 ± 0.019 | -0.174 ± 0.24 | -0.0075 ± 0.035 | -0.015 ± 0.033 | 0.0005 ± 0.026
12 | LPS:CD141/Thrombomodulin | -0.007 ± 0.0057 | -0.0065 ± 0.013 | -0.008 ± 0.0014 | 0.002 ± 0.024 | 0.013 ± 0.0042 | -0.033 ± 0.081 | -0.018 ± 0.067 | -0.0165 ± 0.012 | -0.0365 ± 0.0021 | -0.052 ± 0.013 | -0.052 ± 0.011 | 0.0205 ± 0.012 | 0.016 ± 0.013 | 0.0225 ± 0.0035 | -0.0055 ± 0.025 | -0.0355 ± 0.021 | -0.026 ± 0.034 | 0.0175 ± 0.036 | 0.0075 ± 0.022 | 0.0255 ± 0.028
13 | SAg:CD40 | 0.001 ± 0.0071 | -0.012 ± 0.0099 | -0.029 ± 0.011 | -0.003 ± 0.0085 | 0.0005 ± 0.0021 | -0.0425 ± 0.088 | -0.0475 ± 0.022 | -0.063 ± 0.093 | -0.005 | -0.001 ± 0.0028 | -0.02 ± 0.035 | 0.0105 ± 0.023 | 0.0165 ± 0.005 | -0.008 ± 0.018 | 0.001 ± 0.02 | -0.0115 ± 0.011 | -0.002 ± 0.011 | 0.013 ± 0.0071 | 0.01 ± 0.0042 | -0.0055 ± 0.019
14 | BT:Secreted IgG | -0.0295 ± 0.0064 | 0.0015 ± 0.0064 | 0.0085 ± 0.0035 | 0.02 | 0.0195 ± 0.0035 | 0.003 ± 0.016 | -0.016 ± 0.018 | -0.018 ± 0.0057 | -0.0085 ± 0.015 | -0.0455 ± 0.057 | -0.132 ± 0.016 | -0.0115 ± 0.0035 | -0.0005 ± 0.03 | -0.059 ± 0.013 | 0.0485 ± 0.03 | 0.039 ± 0.034 | -0.0175 ± 0.04 | -0.0085 ± 0.0021 | 0.01 ± 0.018 | 0.0155 ± 0.0035
15 | BE3C:CD87/uPAR | 0.0285 ± 0.00071 | 0.0015 ± 0.0035 | 0.035 ± 0.025 | 0.005 ± 0.031 | -0.0155 ± 0.012 | 0.0055 ± 0.021 | 0.0075 ± 0.0021 | -0.0045 ± 0.015 | -0.0045 ± 0.022 | 0.0205 ± 0.026 | 0.0315 ± 0.029 | -0.016 ± 0.033 | 0.001 ± 0.031 | 0.0275 ± 0.035 | 0.0025 ± 0.0021 | -0.0035 ± 0.012 | 0.008 ± 0.0099 | -0.0225 ± 0.0092 | -0.012 ± 0.013 | 0.002 ± 0.041
